Test results reported in patent US12637445B2, “KIF18A inhibitors” (AMGEN INC., priority 2019, dated 2026).

molecular target: T1, Recombinant human KIF18A (1-467 His-tagged) protein (Homo sapiens, UniProt Q8NI77); experiment: KIF18A Enzyme Assay (microtubule-stimulated ATPase activity, ADP-Glo); type: biochemical; details: 30 nM KIF18A, 30 μg/mL pig microtubules, 75 μM ATP, ADP-Glo luminescence
T1 construct: Recombinant human KIF18A (1-467 His-tagged) protein; His
Excerpt: KIF18A Enzyme Assay: Microtubule-stimulated ATPase activity assay is used to measure KIF18A enzyme activity after treatment with compound. Compounds were 2-fold serially diluted in DMSO (Sigma Inc) over 22-point concentration range. Recombinant human KIF18A (1-467 His-tagged) protein was expressed using a baculovirus system and purified by affinity chromatography by Amgen Inc. Concentrations of KIF18A protein, microtubules (MT), and ATP in the reaction were optimized for standardized homogenous enzyme assay using ADP-Glo™ Kinase/ATPase Assay Kit (Promega Inc). The assay measures ADP formed from the ATPase reaction. Prepare reaction buffer [(15 mM Tris, pH 7.5 (Teknova Inc), 10 mM MgCl2 (IT Baker Inc), 0.01% Pluronic F-68 (Life Technologies Inc), 1 μM Taxol (Cytoskeleton Inc), and 30 μg/mL pig microtubules (Cytoskeleton Inc)]. Add compound and KIF18A protein (30 nM) to prepared reaction buffer and incubated for 15 minutes at room temperature, next add ATP (at Kin, 75 μM) to the reaction mixture and incubated for an additional 15 minutes at room temperature. Mix 5 μl of ADP-Glor™ Reagent and 2.5 μl of the reaction mixture and incubate for 40 minutes at room temperature. Add 10 μl ADP-Glorh Detection Reagent and incubate for 40 minutes at room temperature. Read luminescence using EnVision microplate reader with ultra-luminescence module (Perkin Elmer Inc). Concentration-response curve-fitting and IC50 determination was performed using Genedata Screener Software (Standard 15.0.1, Genedata Inc) with a four-parameter logistic regression fit model.

T1 sequence (Q8NI77 1-467): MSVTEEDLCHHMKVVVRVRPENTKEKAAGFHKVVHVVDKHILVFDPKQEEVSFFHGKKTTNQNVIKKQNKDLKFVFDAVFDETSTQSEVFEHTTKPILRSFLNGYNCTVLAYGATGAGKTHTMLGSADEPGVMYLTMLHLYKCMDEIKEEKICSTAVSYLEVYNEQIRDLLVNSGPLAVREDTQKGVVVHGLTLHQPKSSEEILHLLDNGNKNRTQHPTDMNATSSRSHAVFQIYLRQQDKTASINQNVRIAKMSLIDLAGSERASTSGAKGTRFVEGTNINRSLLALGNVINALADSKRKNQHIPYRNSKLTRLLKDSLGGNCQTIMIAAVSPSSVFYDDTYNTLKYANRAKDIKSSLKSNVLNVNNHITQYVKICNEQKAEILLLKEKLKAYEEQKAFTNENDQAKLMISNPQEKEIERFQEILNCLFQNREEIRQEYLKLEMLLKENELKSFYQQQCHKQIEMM
T1 sequence (P02550 whole entry partner): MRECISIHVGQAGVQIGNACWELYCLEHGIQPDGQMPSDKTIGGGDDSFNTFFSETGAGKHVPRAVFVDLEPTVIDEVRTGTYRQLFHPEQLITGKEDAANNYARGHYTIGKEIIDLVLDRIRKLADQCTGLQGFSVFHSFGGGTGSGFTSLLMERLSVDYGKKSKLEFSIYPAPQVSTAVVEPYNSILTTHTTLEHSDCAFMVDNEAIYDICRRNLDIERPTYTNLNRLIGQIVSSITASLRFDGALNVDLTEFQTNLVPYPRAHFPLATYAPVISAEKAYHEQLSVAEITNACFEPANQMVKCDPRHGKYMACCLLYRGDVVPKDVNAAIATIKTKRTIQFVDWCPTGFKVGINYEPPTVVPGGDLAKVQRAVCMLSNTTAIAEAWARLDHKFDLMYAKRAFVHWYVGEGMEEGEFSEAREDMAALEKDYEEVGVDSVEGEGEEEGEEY
T1 sequence (P02554 whole entry partner): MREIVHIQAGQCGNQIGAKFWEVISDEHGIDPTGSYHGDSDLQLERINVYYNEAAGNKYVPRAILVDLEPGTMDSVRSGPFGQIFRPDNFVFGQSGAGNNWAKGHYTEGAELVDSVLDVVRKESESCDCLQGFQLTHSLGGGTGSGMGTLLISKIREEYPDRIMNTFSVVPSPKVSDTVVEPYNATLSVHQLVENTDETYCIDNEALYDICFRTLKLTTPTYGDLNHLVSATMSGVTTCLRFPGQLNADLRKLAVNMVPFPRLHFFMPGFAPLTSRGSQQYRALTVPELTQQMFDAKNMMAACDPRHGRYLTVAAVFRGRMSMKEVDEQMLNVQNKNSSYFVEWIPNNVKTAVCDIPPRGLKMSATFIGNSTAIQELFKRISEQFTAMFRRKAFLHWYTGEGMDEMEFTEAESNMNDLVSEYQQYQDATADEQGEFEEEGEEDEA

Row | SMILES | IC50
1 | Cc1cc(C)cc(Nc2ncnc3cc(NS(=O)(=O)CCO)cc(N4CCC5(CC4)CC5)c23)c1 [Example 103-1, N-(4-((3,5-Dimethylphenyl)amino)-5-(6-azaspiro[2.5]octan-6-yl)quinazolin-7-yl)-2-hydroxyethane-1-sulfonamide] | 0.403 µM
2 | Cc1cc(Nc2ncnc3cc(NS(=O)(=O)CCO)cc(N4CCC5(CC4)CC5)c23)nc(N2CCC(F)(F)CC2)n1 [Example 104, N-(4-((2-(4,4-Difluoropiperidin-1-yl)-6-methylpyrimidin-4-yl)amino)-5-(6-azaspiro[2.5]octan-6-yl)quinazolin-7-yl)-2-hydroxyethane-1-sulfonamide] | 0.129 µM
3 | Cc1cc(Nc2ncnc3cc(NS(=O)(=O)CCO)cc(N4CCC5(CC4)CC5)c23)cc(OCCC(F)(F)F)c1 [Example 103, 2-Hydroxy-N-(4-((3-methyl-5-(3,3,3-trifluoropropoxy)phenyl)amino)-5-(6-azaspiro[2.5]octan-6-yl)quinazolin-7-yl)ethane-1-sulfonamide] | 0.175 µM
4 | Cc1cc(Nc2ncnc3cc([S@@](=N)(=O)C4CC4)cc(N4CCC5(CC4)CC5)c23)cc(N2CCC(F)(F)CC2)c1 (single isomer, unassigned) [Example 102-2] | 0.262 µM
5 | O=S(=O)(CCO)Nc1cc(N2CCC3(CC2)CC3)c2c(Nc3cccc(OCCC(F)(F)F)c3)ncnc2c1 [Example 103-2, N-(5-(6-Azaspiro[2.5]octan-6-yl)-4-((3-(3,3,3-trifluoropropoxy)phenyl)amino)quinazolin-7-yl)-2-hydroxyethane-1-sulfonamide] | 0.061 µM
6 | Cc1cc(Nc2ncnc3cc(NS(=O)(=O)CCO)cc(N4CCC5(CC4)CC5)c23)cc(N2CCC(F)(F)CC2)n1 [Example 105, N-(4-((2-(4,4-Difluoropiperidin-1-yl)-6-methylpyridin-4-yl)amino)-5-(6-azaspiro[2.5]octan-6-yl)quinazolin-7-yl)-2-hydroxyethane-1-sulfonamide] | 0.082 µM
7 | Cc1cc(Nc2ncnc3cc(NS(=O)(=O)CCO)cc(N4CCC5(CC4)CC5)c23)nc(N2CCC(F)(F)CC2)c1 [Example 105-1, N-(4-((6-(4,4-Difluoropiperidin-1-yl)-4-methylpyridin-2-yl)amino)-5-(6-azaspiro[2.5]octan-6-yl)quinazolin-7-yl)-2-hydroxyethane-1-sulfonamide] | 0.078 µM
8 | Cc1cc(Nc2ncnc3cc([S@](=N)(=O)C4CC4)cc(N4CCC5(CC4)CC5)c23)cc(N2CCC(F)(F)CC2)c1 (single isomer, unassigned) [Example 102-1] | 0.073 µM
9 | Cc1cc(Nc2ncnc3cccc(N4CCC5(CC4)CC5)c23)cc(N2CCC(F)(F)CC2)c1 [Example 101-1, N-(3-(4,4-Difluoropiperidin-1-yl)-5-methylphenyl)-5-(6-azaspiro[2.5]octan-6-yl)quinazolin-4-amine] | 3.34 µM
10 | Cc1cc(Nc2ncnc3cc(NS(=O)(=O)CCO)cc(N4CCC5(CC4)CC5)c23)cc(N2CCC(F)(F)CC2)c1 [Example 100, N-(4-((3-(4,4-Difluoropiperidin-1-yl)-5-methylphenyl)amino)-5-(6-azaspiro[2.5]octan-6-yl)quinazolin-7-yl)-2-hydroxyethane-1-sulfonamide] | 0.049 µM
11 | Cc1cc(Nc2nc(C)nc3cc(NS(=O)(=O)CCO)cc(N4CCC5(CC4)CC5)c23)cc(N2CCC(F)(F)CC2)c1 [Example 100-1, N-(4-((3-(4,4-Difluoropiperidin-1-yl)-5-methylphenyl)amino)-2-methyl-5-(6-azaspiro[2.5]octan-6-yl)quinazolin-7-yl)-2-hydroxyethane-1-sulfonamide] | 0.955 µM
12 | Cc1cc(Nc2nncc3cc(NS(=O)(=O)CCO)cc(N4CCC5(CC4)CC5)c23)cc(N2CCC(F)(F)CC2)c1 [Example 106, N-(1-((3-(4,4-Difluoropiperidin-1-yl)-5-methylphenyl)amino)-8-(6-azaspiro[2.5]octan-6-yl)phthalazin-6-yl)-2-hydroxyethane-1-sulfonamide] | 0.025 µM
13 | Cc1cc(Nc2ncnc3cc(S(C)(=O)=O)cc(N4CCC5(CC4)CC5)c23)cc(N2CCC(F)(F)CC2)c1 [Example 101, N-(3-(4,4-Difluoropiperidin-1-yl)-5-methylphenyl)-7-(methylsulfonyl)-5-(6-azaspiro[2.5]octan-6-yl)quinazolin-4-amine] | 0.94 µM
14 | Cc1cc(Oc2ncnc3cc(NS(=O)(=O)CCO)cc(N4CCC5(CC4)CC5)c23)cc(N2CCC(F)(F)CC2)c1 [Example 105-2, N-(4-(3-(4,4-Difluoropiperidin-1-yl)-5-methylphenoxy)-5-(6-azaspiro[2.5]octan-6-yl)quinazolin-7-yl)-2-hydroxyethane-1-sulfonamide] | 2.84 µM
